Test results published in US9212189B2, “Fluorescent probes for reactive sulfur species” (THE REGENTS OF THE UNIVERSITY OF CALIFORNIA, priority 2011, dated 2015).

Experiments:
[1] = Fluorescence response of probe to H2S (NaSH) in HEPES buffer; conditions: 10 μM probe, 100 μM NaSH, after one hour of reaction
Protocol: (§1) Millipore water was used to prepare all aqueous solutions. All spectroscopic measurements were performed in 20 mM HEPES buffer, pH 7.4. Fluorescence spectra were recorded on a Photon Technology International Quanta Master 4 L-format scanning spectrofluorometer (Lawrenceville, N.J.) equipped with an LPS-220B 75-W xenon lamp and power supply, A-1010B lamp housing with an integrated igniter, switchable 814 photon-counting/analog photomultiplier detection unit, and MD5020 motor driver. Samples for emission measurements were contained in 1-cm×0.1-cm quartz (1.5 mL volume, Starna, Atascadero, Calif.). Absorption spectra were recorded using a Varian Cary 50 spectrophotometer (Walnut Creek, Calif.).
A 10 μM solution of SF1 or SF2 in 20 mM HEPES buffered to pH 7.4 was prepared from a 5 mM stock solution of SF1 or SF2 in DMF in a 1.5 mL eppendorf tube. 10 μL of 10 mM stock solution of NaSH in degassed (by bubbling N2 for ˜30 min) 20 mM HEPES buffered at pH 7.4 was added (for a final concentration of 100 μM) and the mixture was vortexed for 10 s and then transferred to a cuvette. Emission spectra (λex=488 nm, λex=498-700 nm) were collected at 10, 20, 30, 40, 50, and 60 min. The spectrum at t=0 was acquired from a 10 μM solution of SF1 or SF2 without the addition of NaSH.
FIG. 2. Fluorescence responses of (a) 10 μM SF1 and (b) 10 μM SF2 to 100 μM H2S. […]

[2] = Selectivity tests: fluorescence responses to biologically relevant RSS, RNS and ROS; conditions: for turn-on response for H2S relative to other RSS, ROS and RNS: 10 μM probe, 20 mM HEPES pH 7.4; for selectivity for H2S over abundant biologically relevant thiols: 5 mM glutathione and 5 mM cysteine (50× the amount of H2S tested); for response to most biologically relevant ROS or RNS: H2O2, tBuOOH, OCl−, NO2−, NO; for fluorescence response to other relevant RSS: thiosulfate, thiocyanate, S-nitroso glutathione, lipoic acid
Protocol: Selectivities for the SF1 and SF2 probes were measured by fluorescence responses (λex=488 nm, λem=525 nm) at 0, 15, 30, 45, and 60 min. All assays were performed in 20 mM HEPES buffered to pH 7.4. • H2S: 10 μL of a 10 mM stock solution of NaSH in degassed HEPES was added to 10 μM SF1 or SF2 in HEPES with 0.2% DMF. • Glutathione and cysteine: 2 μL of 5 mM SF1 or SF2 in DMF was added to 998 μL 5 mM glutathione or cysteine HEPES. • Lipoic acid: 10 μL of a 10 mM stock solution of lipoic acid in HEPES was added to 990 μL of 10 μM SF1 or SF2 in HEPES with 0.2% DMF. • Na2SO3: 10 μL of a 10 mM stock solution of Na2SO3 in HEPES was added to 990 μL of 10 μM SF1 or SF2 in HEPES with 0.2% DMF. • NaS2O3: 10 μL of a 10 mM stock solution of NaS2O3 in HEPES was added to 990 μL of 10 μM SF1 or SF2 in HEPES with 0.2% DMF. • KSCN: 10 μL of a 10 mM stock solution of KSCN in HEPES was added to 990 μL of 10 μM SF1 or SF2 in HEPES with 0.2% DMF. • S-nitrosoglutathione:^S4 10 μL of a 10 mM stock solution of S-nitroso glutathione in HEPES was added to 990 μL of 10 μM SF1 or SF2 in HEPES with 0.2% DMF. • NaNO2: 10 μL of a 10 mM stock solution of NaNO2 in HEPES was added to 990 μL of 10 μM SF1 or SF2 in HEPES with 0.2% DMF. • NO: 5 μL of a 10 mM stock solution of Proli-NONOATE in degassed (by bubbling N2 for ˜30 min) 10 mM NaOH in HEPES was added to 995 μL of a degassed (by bubbling N2 for ˜30 min) solution of 10 μM SF1 or SF2 in HEPES with 0.2% DMF. • H2O2: 10 μL of a 10 mM stock solution of H2O2 in HEPES was added to 990 μL of 10 μM SF1 or SF2 in HEPES with 0.2% DMF. • O2^−: 100 μL of a saturated solution of KO2 in DMSO (˜1 mM) was added to 900 μL of 10 μM SF1 or SF2 in HEPES with 0.2% DMF. • ^tBuOOH: 10 μL of a 10 mM stock solution of tBuOOH in HEPES buffered to was added to 990 μL of 10 μM SF1 or SF2 in HEPES with 0.2% DMF. • HOCl: 10 μL of a 10 mM stock solution of HOCl in HEPES was added to 990 μL of 10 μM SF1 or SF2 in HEPES with 0.2% DMF.
FIG. 5. Fluorescence responses of (a) 10 μM SF1 and (b) 10 μM SF2 to biologically relevant RSS, RNS, and ROS. Bars represent relative responses at 525 nm at 0, 15, 30, 45, and 60 min after addition of RSS, RNS, or ROS. Data shown are for 5 mM glutathione, 5 mM cysteine, and 100 μM for other RSS, RNS, and ROS. Data were acquired in 20 mM HEPES buffered at pH 7.4 with excitation at λex=488 nm. 1. H2S; 2. glutathione; 3. cysteine; 4. lipoic acid; 5. Na2SO3; 6. NaS2O3; 7. KSCN; 8. S-nitroso glutathione; 9. NaNO2; 10. NO; 11. H2O2; 12. O2^−; 13. ^tBuOOH; 14. HOCl.

[3] = Spectroscopic properties (absorbance, emission, quantum yield); format: physicochemical; conditions: for absorption of the protected probe in the visible region: protected form, closed lactone conformation; for ε (extinction coefficient) of reaction product: at λmax; for Φ (quantum yield) of reaction product: fluorescein as standard, 20 mM HEPES pH 7.4; for λmax (absorbance) of reaction product: new absorbance band in the visible region; for λem of reaction product: product formed from 10 μM probe with 100 μM NaSH
Protocol: as §1
FIG. 1. Absorbance spectra of (a) 10 μM SF1 (b) 10 μM SF2, and 10 μM of rhodamine products (c) tert-butoxycarbonyl-rhodamine 110 and (d) morpholinourea-rhodamine 110.
Quantum yields were determined using fluorescein as a standard according to a published method.^S3 For each compound and fluorescein, the absorbance spectra were measured within an absorbance range of 0.01 to 0.1. The quantum yield was calculated according to the equation: Φsample=Φstandard (Gradsample/Gradstandard)[…], where Φ is the quantum yield, Φstandard=0.95 in 0.1 M NaOH, Grad is the slope of the plot of […], and η is the refractive index of the solvent.

HEK293T cells = test: Confocal imaging of H2S detection in live HEK293T cells; format: cell-based; conditions: for intracellular fluorescence intensity after NaSH: 5 μM probe 30 min, then 250 μM NaSH 30 min, excitation 488 nm; for background response in untreated cells: absence of exogenous H2S; for cell viability over the course of the experiments: bright field images co-localized with Hoescht nuclear staining
Protocol: HEK 293T cells were maintained in exponential growth as a monolayer in Dulbecco's Modified Eagle Medium (DMEM, Invitrogen) supplemented with 10% fetal bovine serum (FBS, Hyclone), and incubated at 37° C. in 5% CO2. One or two days before imaging, the cells were passaged and plated in phenol red-free medium on 4-well Lab-Tek borosilicate chambered coverglass slides (Nunc) and allowed to grow to 50-70% confluence. For all experiments, solutions of SF1 and SF2 were prepared in DMF (5 mM) and diluted into DMEM at the desired working concentrations (5 μM). NaSH was delivered from a stock solution of 25 mM in degassed (by bubbling N2 for ˜30 min) Dulbecco's Phosphate Buffered Saline (DPBS). Cells were treated with SF1 or SF2 for one hour, with NaSH (50-250 μM) or blank control added for the final 30 minutes. Images were collected at 30 min after NaSH addition. For nuclear imaging studies, cells were incubated with 1 μM Hoechst 33342 at 37° C. for 30 min prior to imaging.
Confocal Imaging Experiments. Confocal fluorescence imaging studies were performed with a Zeiss laser scanning microscope 710 with a 40× water objective lens, with Zen 2009 software (Carl Zeiss). SF1 and SF2 were excited using a 488 nm Ar laser, and emission collected using a META detector between 500 and 650 nm. Hoechst 33342 was excited with a 405 nm diode laser, and emission collected using a META detector between 450 and 500 nm. The cells were imaged at 37° C. and 5% CO2 throughout the course of the experiment. Image analysis was performed using ImageJ (National Institute of Health).
FIG. 6. Confocal images of H2S detection in live HEK293T cells using SF1 and SF2. (a) HEK293T cells incubated with SF1 for 60 min at 37° C. (b) HEK293T cells incubated with SF1 for 60 min at 37° C. with 250 μM NaSH added for the final 30 min. (c) Brightfield images of the same field of cells in (b) overlaid with images of 1 μM Hoescht stain at 37° C. (d) HEK293T cells incubated with SF2 for 60 min at 37° C. (e) HEK293T cells incubated with SF2 for 60 min at 37° C. with 250 μM NaSH added for the final 30 min. (f) Brightfield images of the same field of cells in (e) overlaid with images of 1 μM Hoescht stain at 37° C. Scale bars represent […].
FIG. 7. Mean fluorescence intensity of confocal images of H2S detected in live HEK293T cells treated with 0, 50, 100, and 250 μM H2S. (a) HEK293T cells were incubated with SF1 for 60 min at 37° C. with the indicated amount of H2S added for the final 30 min. (b) HEK293T cells were incubated with SF2 for 60 min at 37° C. with the indicated amount of H2S added for the final 30 min. Data represent the mean fluorescence intensity of distinct fields (n=4). Error bars are ±s.e.m.

[4] = Fluorescence response of 4-azido-1,8-naphthalimide to H2S
Protocol: FIG. 8. Fluorescence response of 10 μM 4-azido-1,8-naphthalimide to 100 μM H2S. Data were acquired at 25° C. in 20 mM HEPES buffered to pH 7.4 with excitation at λex=470 nm. Emission was collected between 495 and 650 nm. Time points represent 0, 15, 30, 45, and 60 min (red trace) after addition of 100 μM H2S. Reactions are not complete at these time points.

Row | cellular permeability (HEK293T cells; live HEK293T cells) | emission compared with SF1 and SF2 [4] | Compound | turn-on response (fluorescence) [1] [fold] | selectivity for H2S versus superoxide (O2−) [2] | turn-on response for H2S relative to other RSS, ROS and RNS [2] | selectivity for H2S over abundant biologically relevant thiols [2] | response to most biologically relevant ROS or RNS [2] | fluorescence properties in vitro as compared to SF1 ([2]; greater response to H2S, lower background reactivity, better selectivity versus glutathione, sulfite, O2−) | fluorescence response to other relevant RSS ([2]; sulfite) | absorption of the protected probe in the visible region [3] | intracellular fluorescence intensity after NaSH (HEK293T cells) | background response in untreated cells (HEK293T cells) | cell viability over the course of the experiments (HEK293T cells) | staining of cellular nuclei (HEK293T cells; live HEK293T cells) | ε (extinction coefficient) of reaction product [3] | Φ (quantum yield) of reaction product [3] | λmax (absorbance) of reaction product [3] [nm] | λem of reaction product [3] [nm]
1 | exceptional cellular permeability | – | [N-]=[N+]=Nc1ccc2c(c1)Oc1cc(NC(=O)N3CCOCC3)ccc1C21OC(=O)c2ccccc21 (stereo not drawn) [SF2, Sulfidefluor-2] | 9 | good selectivity | selective turn-on response | high selectivity | do not respond | more favorable fluorescence properties in vitro | negligible or small fluorescence responses | no absorption features in the visible region | patent increase in intracellular fluorescence intensity | little background response | confirm the cell viability | significant staining of the cellular nuclei | – | – | – | –
2 | – | – | tert-butoxycarbonyl-rhodamine 110 [Product from SF1] | – | – | – | – | – | – | – | – | – | – | – | – | 61,000 M^−1cm^−1 | 0.51 | 490 | 525
3 | – | – | morpholinourea-rhodamine 110 [Product from SF2] | – | – | – | – | – | – | – | – | – | – | – | – | 75,000 M^−1cm^−1 | 0.60 | 492 | 525
4 | exceptional cellular permeability | – | CC(C)(C)OC(=O)Nc1ccc2c(c1)Oc1cc(N=[N+]=[N-])ccc1C21OC(=O)c2ccccc21 (stereo not drawn) [SF1, Sulfidefluor-1] | 7 | good selectivity | selective turn-on response | high selectivity | do not respond | – | negligible or small fluorescence responses | no absorption features in the visible region | patent increase in intracellular fluorescence intensity | little background response | confirm the cell viability | – | – | – | – | –
5 | – | red-shifted emission | [N-]=[N+]=Nc1ccc2c3c(cccc13)C(=O)NC2=O [4-Azido-1,8-naphthalimide] | – | – | – | – | – | – | – | – | – | – | – | – | – | – | – | –
